Test results as given in patent publication US5585355A, “Method for increasing blood-ocular barrier permeability with permeabilizer peptides” (Alkermes, Inc., priority 1994, dated 1996).
Values joined by “and” are separate entries in the source; they are usually repeats but may differ in a detail not shown here. Identical values can stand only once. Like-named read-outs stand apart in the source and are kept apart here.

What was measured:
blood-ocular barrier [1] = details: for Uptake of [14C]-sucrose, % of plasma concentration (W/W) / KIN, unidirectional transport rate of [14C]-sucrose: A-7 1 μg/kg; for KIN, unidirectional transport rate of [14C]-sucrose: 3.0 min to 4.5 min
Method: Adult Hartley guinea pigs of either sex (250-300 g) were used.
Animals were anaesthetized with 6 mg/kg xylazine (Rompun®, Mobay Corp., Shawnee, Kans.) and 30 mg/kg ketamine (Vetacet®, Abeco Co., Inc., Fort Dodge, Iowa) before surgically exposing the neck vessels. […] The technique is briefly summarized here. A fine polyethylene catheter connected to the extracorporeal perfusion system by silicon tubings was inserted into the right common carotid artery. Immediately after the start of the perfusion, the contralateral carotid artery was ligated and both jugular veins cut to allow free drainage of the perfusate.
All tubing was low gas permeable silicon, and all metal was medical grade stainless steel. The temperature and perfusion pressure were continuously recorded, and the acid-base status frequently monitored. Perfusion pressure was kept slightly above the animal's blood pressure to eliminate any possible ingress from the systemic circulation.
Isotopically labeled [^14 C]-sucrose was introduced into the perfusion circuit after the 5 minute infusion at a rate of 0.4 to 0.6 μCi/ml/min, over periods ranging from 1.5 min to 4.5 min. In all experiments, the perfusion was terminated by severing the right common carotid artery and decapitating the animal.
The eyes were enucleated and the lenses rapidly excised via a lateral approach 1.5 mm posteriorly to the limbus. The lenses were blotted on filter paper to remove any adhering aqueous humor and to avoid epithelial contamination by aqueous radioactivity. Corneas were dissected circumferentially about 0.5 mm anteriorly to the limbus. After removal of the anterior segment of the eye, the vitreous body was dissected from the retinal surface. Retinas were scooped from the lying epithelium. All tissues were blotted after dissection to minimize contamination by adjacent tissue layers and/or fluids. Samples of plasma, aqueous humor, lens, cornea, retina and posterior vitreous were treated with 2 ml Beckman Tissue Solubilizer (BTS)-450, and 16 ml of scintillant (Beckman Ready Organic, Fullerton, Calif.). Radioactivity was determined in a Beckman LS-7500 liquid scintillation spectrometer.
(When data are expressed as percentages the ratios were multiplied by 100.) The following equations were used to calculate ratios:
Caqueous or Cvitreous /Cplasma =(DPM/ml aqueous or vitreous)/(DPM/ml plasma)
Clens or Ccornea or Cretina /Cplasma =(DPM/g lens or cornea or retina)/(DPM/ml plasma)
Multiple-time uptake series were performed, and the unidirectional transport rate constant, KIN, and initial volume of tracer distribution, VI, were calculated using the following equations where T is the perfusion time:
KIN (plasma-aqueous or vitreous)=[Caqueous or vitreous /Cplasma ]T+VI (aqueous or vitreous/plasma)
KIN (plasma-lens, cornea or retina)=[Clens, cornea or retina /Cplasma ]T+VI (lens cornea or retina/plasma)
The respective KIN and VI values were graphically estimated by linear regression analysis as a slope and ordinate intercept of the line corresponding to the best linear fit to experimental data points for the time period when there was no significant departure from linearity in studied compartments.
Results are presented as means±SE.

[2] = Effect of A-7 on physiological functions; format: in vivo, guinea pig; details: for Blood Pressure / Body Weight / Heart Rate / Respirations/Minute: within first minute of infusion
blood-ocular barrier [3] = experiment: Uptake of [3H]-ganciclovir into retina and lens following intravenous administration of A-7; format: in vivo, guinea pig; details: for Uptake of [3H]-ganciclovir, % of plasma concentration (W/W): five minute intravenous administration of A-7
Method: The methodology of these experiments is similar to that of Example 1 except for the following modifications. In this case, [^3 H]-ganciclovir (22 Ci mmol^-1, Moravek Brea, Calif.) was injected into the right jugular vein instead of the common carotid artery. […] The lenses and retinas were removed as described in Example 1.

Substance: Arginine-Proline-Hydroxyproline-Glycine-Thienylalanine-Serine-Proline-4-Me-Tyrosine-(CH2 NH)Arginine [A-7]
- KIN for sucrose, times higher in the presence of A-7 (blood-ocular barrier [1]; lens): 6.5 times
- Uptake of [14C]-sucrose, % of plasma concentration (W/W) (blood-ocular barrier [1]; lens, 1.5 min after sucrose added): 0.03 ± 0.02 % of Plasma Concentration (W/W
- Uptake of [14C]-sucrose, % of plasma concentration (W/W) (blood-ocular barrier [1]; lens, 3.0 min after sucrose added): 0.05 ± 0.01 % of Plasma Concentration (W/W
- KIN, unidirectional transport rate of [14C]-sucrose (blood-ocular barrier [1]; lens): 0.130 ± 0.015 µL/min/g
- Uptake of [14C]-sucrose, % of plasma concentration (W/W) (blood-ocular barrier [1]; lens, 4.5 min after sucrose added): 0.07 ± 0.01 % of Plasma Concentration (W/W
- KIN for sucrose, times higher in the presence of A-7 (blood-ocular barrier [1]; retina): 6.7 times
- Uptake of [14C]-sucrose, % of plasma concentration (W/W) (blood-ocular barrier [1]; retina, 1.5 min after sucrose added, 5 min arterial infusion): 0.95 ± 0.30 % of Plasma Concentration (W/W
- Uptake of [14C]-sucrose, % of plasma concentration (W/W) (blood-ocular barrier [1]; retina, 3.0 min after sucrose added, 5 min arterial infusion): 1.76 ± 0.50 % of Plasma Concentration (W/W
- KIN, unidirectional transport rate of [14C]-sucrose (blood-ocular barrier [1]; retina): 4.27 ± 0.9 µL/min/g
- Uptake of [14C]-sucrose, % of plasma concentration (W/W) (blood-ocular barrier [1]; retina, 4.5 min after sucrose added, 5 min arterial infusion): 2.26 ± 0.56 % of Plasma Concentration (W/W
- Uptake of [14C]-sucrose, % of plasma concentration (W/W) (blood-ocular barrier [1]; vitreous, 1.5 min after sucrose added): 0.03 ± 0.018 % of Plasma Concentration (W/W
- Uptake of [14C]-sucrose, % of plasma concentration (W/W) (blood-ocular barrier [1]; vitreous, 3.0 min after sucrose added): 0.05 ± 0.01 % of Plasma Concentration (W/W
- KIN, unidirectional transport rate of [14C]-sucrose (blood-ocular barrier [1]; vitreous): 0.84 µL/min/g and 0.84 ± 0.25 µL/min/g
- Uptake of [14C]-sucrose, % of plasma concentration (W/W) (blood-ocular barrier [1]; vitreous, 4.5 min after sucrose added): 0.18 ± 0.05 % of Plasma Concentration (W/W
- Effect on sucrose uptake by vitreous (blood-ocular barrier [1]; vitreous, time points earlier than 4.5 minutes of VEP): did not affect
- Changes in body weight, respiration rate, blood pressure and heart rate ([2]; A-7 1 μg/kg): no significant changes
- Blood Pressure ([2]; A-7 1 μg/kg body weight): 75 mm Hg
- Body Weight ([2]; A-7 1 μg/kg body weight): 283 g
- Heart Rate ([2]; A-7 1 μg/kg body weight): 170 Beats Per Minute
- Respirations/Minute ([2]; A-7 1 μg/kg body weight): 26
- Blood Pressure ([2]; A-7 3 μg/kg body weight): 90 mm Hg
- Body Weight ([2]; A-7 3 μg/kg body weight): 283 g
- Heart Rate ([2]; A-7 3 μg/kg body weight): 200 Beats Per Minute
- Respirations/Minute ([2]; A-7 3 μg/kg body weight): 44
- Blood Pressure ([2]; A-7 10 μg/kg body weight): 100 mm Hg
- Body Weight ([2]; A-7 10 μg/kg body weight): 285 g
- Heart Rate ([2]; A-7 10 μg/kg body weight): Unmeasur-
- Respirations/Minute ([2]; A-7 10 μg/kg body weight): 58
- Uptake of [3H]-ganciclovir, % of plasma concentration (W/W) (blood-ocular barrier [3]; lens, 1.5 min): 5.46 ± 1.08 % of Plasma Concentration (W/W
- Uptake of [3H]-ganciclovir, % of plasma concentration (W/W) (blood-ocular barrier [3]; lens, 4.5 min): 10.01 ± 1.37 % of Plasma Concentration (W/W
- Uptake of [3H]-ganciclovir, % of plasma concentration (W/W) (blood-ocular barrier [3]; retina, 1.5 min): 3.94 ± 0.36 % of Plasma Concentration (W/W
- Uptake of [3H]-ganciclovir, % of plasma concentration (W/W) (blood-ocular barrier [3]; retina, 4.5 min): 8.45 ± 1.00 % of Plasma Concentration (W/W
- Increase of retinal uptake of [3H]-ganciclovir above vehicle treated controls (blood-ocular barrier [3]; retina, intravenous A-7, p=0.001): more than 2 fold
